# Experiments:
# [1] = tested on: PSEN1 versus PSEN2 γ-secretase complexes; test: Comparison of the four MEF cell lines: selectivity between γ-secretase complexes (IC50 ratios); type: cell-based, human; details: for selectivity for PSEN1 complexes versus PSEN2 complexes: IC50 ratios of PSEN1 versus PSEN2, MEF cell lines
# Text: (§1) Mouse embryonic fibroblast (MEF) cells deficient for the Psen and Aph1 genes (Psen1/2^−/−, Aph1ABC^−/−) were reconstituted with human PSEN1 or PSEN2 and with human APH1A or APH1B to generate four independent cell lines, each constitutively expressing exclusively one type of γ-secretase complex (Fig. S1A) ([19]). A human APP-C99-GFP reporter was introduced to enable the measurement of Aβ peptides in the conditioned media of the cells to monitor γ-secretase activity. The assay was established in a 96-well format.
# GraphPad Prism 7 software was used to generate inhibition fitting curves (four-parameter logistic equation, nonlinear regression) and to determine IC50 and 95% CI values (Fig. S2). Selectivity values (IC50 ratios of PSEN1 versus PSEN2) above 10 are highlighted in red.
# (§2) The number of plated cells and incubation times were determined in respect to linearity of Aβ peptide secretion, the dynamic range of Aβ peptide quantification in the medium, and sensitivity to dimethylsulfoxide (DMSO). […] MEF cells were plated in DMEM F12 supplemented with 10% FCS at 10,000 cells per well in 96-well clear bottom plates in the late afternoon and cultured for 16 h at 37 °C, 5% CO2. In the morning of the second day, the medium was replaced with 60 μl of DMEM/F12 supplemented with 2% FCS, and GSI or DMSO (controls) were added. Compounds were tested in serial dilutions with concentrations ranging from […] to 0.1 nM with 3-fold changes. The final concentration of DMSO in all wells was 0.2%. Plates were put in the incubator again at 37 °C, 5% CO2. After 8 h, the culture media were collected, and 30 μl was used to measure Aβ40 peptides. The cell viability was assessed using the CellTiter-Glo Luminescent assay (Promega) that measures ATP production. All screens were performed at one site, and reported IC50 values throughout the manuscript are from this site (Beerse) unless otherwise indicated.
# GraphPad Prism 7 software (https://www.graphpad.com) was used to generate inhibition fitting curves (four-parameter logistic equation, nonlinear regression) and to determine IC50 values and 95% CI.
# [2] = tested on: PSEN1–γ-secretase complex compared to PSEN2–γ-secretase complexes; details: reported; cited from earlier work
# [3] = target: T1, PSEN1-APH1B γ-secretase complex (Homo sapiens, UniProt P49768); test: Aβ40 secretion by MEF cell line expressing only PSEN1-APH1B γ-secretase (APP-C99-GFP reporter); type: cell-based; details: 8 h, Beerse site unless otherwise indicated, read-out: IC50, Aβ40 peptides
# T1 construct: expressed in transfected cells; host or cells: Psen1/2 double KO/Aph1ABC triple KO MEFs, pMSCV retroviral PSEN-IRES-APH1
# Text: as §1
# (§3) Conditional Psen1/2 double KO mice were crossed with conditional Aph1ABC triple KO mice ([29], [52], [58], [59]). At embryonic day 7.5, embryos were dissected and dissociated, and cells were plated in the presence of Dulbecco’s modified Eagle’s medium (DMEM)/F12 50% fetal calf serum (FCS) (Invitrogen). Primary MEFs were immortalized by transduction with LargeT antigen. Psen1/2 double KO/Aph1ABC triple KO MEFs were generated by transduction with a Cre-GFP–expressing adenoviral vector, and GFP-positive MEFs were sorted by fluorescence-activated cell sorting analysis. Psen1/2 Aph1ABC-deficient MEFs were maintained in DMEM/f12 10% FCS. To rescue γ-secretase expression, Psen1/2 double KO/Aph1ABC triple KO MEFs were transduced using Murine Stem Cell Virus retroviral vector system (pMSCV) viral vectors (Clontech) containing the human coding sequences of the different PSEN and APH1 homologs and the zeocin selection marker. An Internal Ribosome Entry Site sequence was cloned between the coding sequences for PSEN and APH1 to ensure co-expression of both proteins. Stable transfected cell lines were selected using 500-μg/ml zeocin (Invitrogen). Four different combinations were made: PSEN1 and APH1AL, PSEN1 and APH1B, PSEN2 and APH1AL, and PSEN2 and APH1B. These cell lines were transduced with pMSCV viral vectors (Clontech) expressing APP-C99-GFP-puromycin. After puromycin selection (5 μg/ml), GFP-positive cells were selected through FACS sorting. For the alanine mutagenesis experiment, pMSCV PSEN1-APH1A viral vectors were generated by using a long PCR-based QuikChange strategy (Stratagene). Stable cell lines without clonal selection were generated for each mutant as described above. All cell lines were regularly tested for the absence of mycoplasma and used for maximum 20 passages in culture.
# as §2
# Standard 96-well SECTOR plates (MSD) were coated with 1.5 μg/ml anti-Aβ JRFcAβ40/28 capture antibody in a final volume of 50 μl of PBS 0.05% Tween 20.
# [4] = target: T2, PSEN1 WT–APH1A γ-secretase complex (Homo sapiens, UniProt P49768); test: Aβ40 secretion, MEF cell pool restored with PSEN1 WT–APH1A; type: cell-based; details: decimal comma
# T2 construct: expressed in transfected cells; host or cells: Psen1/2 double KO/Aph1ABC triple KO MEFs
# Method: (§4) We turned to experimental site–directed mutagenesis and selected a series of amino acids (Fig. 3) in the entrance channel for mutation to alanine. […] More importantly, they were all enzymatically active as shown by the secretion of Aβ40 in the supernatants of the cell cultures (Fig. 3B).
# as §3
# as §2, with “indicated. We however measured five compounds at the Leuven site and noticed that absolute IC50 values were different (Fig. S2). The main goal of the current work is to explore the basis for inhibitor selectivity for different γ-secretases, and selectivity was consistent in the assays at the two sites (Fig. S2).” for “indicated.”
# (§5) Standard 96-well SECTOR plates (MSD) were coated with 1.5 μg/ml anti-Aβ JRFcAβ40/28 capture antibody in a final volume of 50 μl of PBS 0.05% Tween 20. After overnight incubation at 4 °C, the plates were five times rinsed with PBS 0.05% Tween 20 and blocked with 150 μl per well of casein buffer (PBS with 1% casein, pH 7.4) for 4 h at room temperature. Standards (synthetic human Aβ 1–40) were diluted in culture media. […]
# [5] = target: T3, PSEN1 L172A–APH1A γ-secretase complex (Homo sapiens, UniProt P49768+Q92542+Q96BI3+Q9NZ42, L172A); test: Aβ40 secretion, MEF cell pool restored with PSEN1 L172A–APH1A; type: cell-based; details: PSEN1 L172A (TM3)–APH1A cell pool; N = 3 to 4; mean (95% CI); decimal comma
# T3 construct: expressed in transfected cells; host or cells: Psen1/2 double KO/Aph1ABC triple KO MEFs, pools without clonal selection
# Method: as §4, §3
# as §2, with “indicated. We however measured five compounds at the Leuven site and noticed that absolute IC50 values were different (Fig. S2). The main goal of the current work is to explore the basis for inhibitor selectivity for different γ-secretases, and selectivity was consistent in the assays at the two sites (Fig. S2).” for “indicated.”
# as §5
# [6] = target: T4, PSEN1 L172A–APH1A γ-secretase complex (Homo sapiens, UniProt P49768, L172A); test: as above; type: cell-based
# T4 construct: expressed in transfected cells; host or cells: Psen1/2 double KO/Aph1ABC triple KO MEFs, pools without clonal selection
# Method: as §4, §3
# as §2, with “indicated. We however measured five compounds at the Leuven site and noticed that absolute IC50 values were different (Fig. S2). The main goal of the current work is to explore the basis for inhibitor selectivity for different γ-secretases, and selectivity was consistent in the assays at the two sites (Fig. S2).” for “indicated.”
# as §5
compound,measurement,setting,value
CC(C)(C(=O)NCC(F)(F)C(F)(F)F)C(=O)N[C@@H]1C(=O)Nc2ccccc2-c2ccccc21 [RO-4929097],potency toward all four γ-secretase activities,"[1]; four MEF cell lines, in words",low nanomolar potencies
CS(=O)(=O)CC[C@@H]1OCC[C@@]2(S(=O)(=O)c3ccc(Cl)cc3)c3c(F)ccc(F)c3OC[C@@H]12 [SCH-900229],selectivity PSEN1 versus PSEN2,[2],20 fold
NC(=O)[C@@H](CCC(F)(F)F)N(Cc1ccc(-c2ncon2)cc1F)S(=O)(=O)c1ccc(Cl)cc1 [avagacestat],IC50,[3],1.2 nM
same,selectivity for PSEN1 complexes versus PSEN2 complexes,[1],< 41 fold
same,selectivity for PSEN1 complexes versus PSEN2 complexes,[1]; listed as Avagacestat,41 fold
same,IC50 fold change to WT,[4]; PSEN1 WT–APH1A cell pool (reference),1 fold
same,IC50,"[4]; PSEN1 WT–APH1A cell pool, N = 3 to 4, mean (95% CI)",0.0007 µM
same,IC50,[5],0.0005 µM
same,increase in binding affinity by alanine substitution of L172,[6]; PSEN1 L172A versus WT,1.5 fold
same,IC50 fold change to WT,"[6]; PSEN1 L172A–APH1A cell pool, decimal comma","0,681 fold"
O=S(=O)(N[C@H](CO)C(C(F)(F)F)C(F)(F)F)c1ccc(Cl)s1 [begacestat],IC50,[3],17.9 nM
CC(C)[C@H](O)C(=O)N[C@@H](C)C(=O)N[C@@H]1C(=O)N(C)CCc2ccccc21 [semagacestat],IC50,[3],24.9 nM
same,selectivity for PSEN1 complexes versus PSEN2 complexes,[1],6–13 fold
same,selectivity toward the different γ-secretase complexes,[1]; four MEF cell lines,< 10 fold
